Measured values published in patent publication US12435057B2, “Triazole carboxylic acids as LPA antagonists” (BRISTOL-MYERS SQUIBB COMPANY, priority 2019, dated 2025).
Counter-ions that a name gives are not always drawn.

Biological target: T1, human LPA1 (Homo sapiens, UniProt Q92633)
T1 construct: expressed in transfected cells; host or cells: Chinese hamster ovary (CHO) cells
Test: LPA1 functional antagonist assay (calcium flux)
Assay type: cell-based
Conditions: CHO cells overexpressing human LPA1; inhibition of calcium flux induced by 10 nM LPA; read-out: hLPA1 IC50
Method: The effectiveness of compounds of the present invention as LPA1 inhibitors can be determined in an LPA1 functional antagonist assay as follows: • Chinese hamster ovary cells overexpressing human LPA1 were plated overnight (15,000 cells/well) in poly-D-lysine coated 384-well microplates (Greiner bio-one, Cat #781946) in DMEM/F12 medium (Gibco, Cat #11039). Following overnight culture, cells were loaded with calcium indicator dye (AAT Bioquest Inc, Cat #34601) for 30 minutes at 37° C. The cells were then equilibrated to room temperature for 30 minutes before the assay. Test compounds solubilized in DMSO were transferred to 384 well non-binding surface plates (Corning, Cat #3575) using the Labcyte Echo acoustic dispense and diluted with assay buffer [[…] with calcium/magnesium (Gibco Cat #14025-092), 20 mM HEPES (Gibco Cat #15630-080) and 0.1% fatty acid free BSA (Sigma Cat #A9205)] to a final concentration of 0.5% DMSO. Diluted compounds were added to the cells by FDSS6000 (Hamamatsu) at final concentrations ranging from 0.08 nM to 5 μM. and were then incubated for 20 min at room temperature at which time LPA (Avanti Polar Lipids Cat #857130C) was added at final concentrations of 10 nM to stimulate the cells. The compound IC50 value was defined as the concentration of test compound which inhibited 50% of the calcium flux induced by LPA alone. IC50 values were determined by fitting data to a 4-parameter logistic equation (GraphPad Prism, San Diego CA). b. In Vivo Assays LPA Challenge with Plasma Histamine Evaluation.

T1 sequence (Q92633 whole entry): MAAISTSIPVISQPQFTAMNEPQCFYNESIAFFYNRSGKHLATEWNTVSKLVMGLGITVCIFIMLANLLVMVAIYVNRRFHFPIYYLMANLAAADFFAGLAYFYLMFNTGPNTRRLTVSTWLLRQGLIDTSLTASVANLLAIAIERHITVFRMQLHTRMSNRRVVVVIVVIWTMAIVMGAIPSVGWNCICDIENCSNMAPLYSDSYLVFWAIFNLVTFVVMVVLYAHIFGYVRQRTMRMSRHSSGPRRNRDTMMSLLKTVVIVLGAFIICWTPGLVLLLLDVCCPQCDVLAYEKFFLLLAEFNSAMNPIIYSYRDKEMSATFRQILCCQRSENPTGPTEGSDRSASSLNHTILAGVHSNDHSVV

| IC50 [nM] | Structure (SMILES) |
| --- | --- |
| 80 | CN(C(=O)OCc1c(-c2ccc(O[C@@H]3C[C@H](C(=O)O)C[C@@H]4C[C@@H]43)cn2)nnn1C)C1CCCC1 (racemic) [Example 72, (±)-(1 S,3R,5R,6S)-5-((6-(5-(((Cyclopentyl(methyl)carbamoyl)oxy)methyl)-1-methyl-1H-1,2,3-triazol-4-yl)pyridin-3-yl)oxy)bicyclo[4.1.0]heptane-3-carboxylic Acid] |
| 60 | CN(C(=O)OCc1c(-c2ccc(OC3CCCC4C(C(=O)O)C34)cn2)nnn1C)C1CCCC1 (racemic) [Example 74, (±)-2-((6-(5-(((Cyclopentyl(methyl)carbamoyl)oxy)methyl)-1-methyl-1H-1,2,3-triazol-4-yl)pyridin-3-yl)oxy)bicyclo[4.1.0]heptane-7-carboxylic Acid] |
| 16 | Cc1nc(-c2nnn(C)c2COC(=O)N(C)CC2CCC2)ccc1O[C@@H]1CC2C[C@H]2[C@H](C(=O)O)C1 (single isomer, unassigned) [Example 3] |
| 907 | Cc1nc(-c2nnn(C)c2COC(=O)N(C)CC2CCC2)ccc1O[C@H]1C[C@@H]2C[C@@H]2[C@@H](C(=O)O)C1 (single isomer, unassigned) [Example 4] |
| 28 | Cc1nc(-c2nnn(C)c2COC(=O)N(C)CC2CCC2)ccc1O[C@H]1CC2C[C@H]2[C@H](C(=O)O)C1 (single isomer, unassigned) [Example 5] |
| 562 | Cc1nc(-c2nnn(C)c2COC(=O)N(C)CC2CCC2)ccc1O[C@@H]1C[C@@H]2C[C@@H]2[C@@H](C(=O)O)C1 (single isomer, unassigned) [Example 6] |
| 26 | Cc1nc(-c2nnn(C)c2COC(=O)N(C)CC2CCC2)ccc1O[C@@H]1C[C@@H]2C[C@@H]2[C@H](C(=O)O)C1 (single isomer, unassigned) [Example 8] |
| 582 | Cc1nc(-c2nnn(C)c2COC(=O)N(C)CC2CCC2)ccc1O[C@H]1CC2C[C@H]2[C@@H](C(=O)O)C1 (single isomer, unassigned) [Example 9] |
| 130 | Cc1nc(-c2nnn(C)c2COC(=O)N(C)CC2CCC2)ccc1O[C@@H]1CCC[C@@]2(C(=O)O)C[C@@H]12 (single isomer, unassigned) [Example 11] |
| 278 | Cc1nc(-c2nnn(C)c2COC(=O)N(C)CC2CCC2)ccc1O[C@H]1CCC[C@]2(C(=O)O)C[C@H]12 (single isomer, unassigned) [Example 12] |
| 619 | Cc1nc(-c2nnn(C)c2COC(=O)N(C)CC2CCC2)ccc1O[C@@H]1CC[C@H]2C(C(=O)O)[C@@H]12 (single isomer, unassigned) [Example 42] |
| 15 | Cc1nc(-c2nnn(C)c2COC(=O)N(C)CC2CCC2)ccc1O[C@H]1CC[C@@H]2[C@@H](C(=O)O)[C@@H]21 (single isomer, unassigned) [Example 43] |
| 65 | Cc1nc(-c2nnn(C)c2COC(=O)N(C)CC2CCC2)ccc1O[C@@H]1CC[C@H]2C(C(=O)O)[C@@H]12 (single isomer, unassigned) [Example 44, TFA Salt] |
| 92 | Cc1nc(-c2nnn(C)c2COC(=O)N(C)CC2CCC2)ccc1O[C@@H]1CC[C@H]2C(C(=O)O)[C@@H]12 (single isomer, unassigned) [Example 45] |
| 2010 | Cc1nc(-c2nnn(C)c2COC(=O)N(C)CC2CCC2)ccc1O[C@H]1CC[C@@H]2[C@@H](C(=O)O)[C@@H]21 (single isomer, unassigned) [Example 46] |
| 793 | CCCN(C)C(=O)OCc1c(-c2ccc(O[C@H]3C[C@H](C(=O)O)[C@@H]4C[C@@H]43)c(C)n2)nnn1C [Example 13] |
| 143 | CCCCN(C)C(=O)OCc1c(-c2ccc(O[C@H]3C[C@H](C(=O)O)[C@@H]4C[C@@H]43)c(C)n2)nnn1C [Example 14] |
| 1050 | Cc1nc(-c2nnn(C)c2CNc2noc(CC3CC3)n2)ccc1O[C@H]1C[C@H](C(=O)O)[C@@H]2C[C@@H]21 [Example 15] |
| 1.43 | Cc1nc(-c2nnn(C)c2NC(=O)OCC2CC2)ccc1O[C@H]1C[C@H](C(=O)O)[C@@H]2C[C@@H]21 [Example 16] |
| 174 | CCCCN(C)C(=O)OCc1c(-c2ccc(O[C@@H]3COC[C@@H](C(=O)O)C3)c(C)n2)nnn1C [Example 18] |
| 151 | CCCCCN(C)C(=O)OCc1c(-c2ccc(O[C@@H]3COC[C@@H](C(=O)O)C3)c(C)n2)nnn1C [Example 19] |
| 222 | Cc1nc(-c2nnn(C)c2COC(=O)N(C)CCC(C)C)ccc1O[C@@H]1COC[C@@H](C(=O)O)C1 [Example 20] |
| 168 | Cc1nc(-c2nnn(C)c2COC(=O)N(C)CC2CCC2)ccc1O[C@@H]1COC[C@@H](C(=O)O)C1 [Example 21] |
| 160 | Cc1nc(-c2nnn(C)c2COC(=O)N(C)CC2CCCC2)ccc1O[C@@H]1COC[C@@H](C(=O)O)C1 [Example 22A] |
| 178 | Cc1nc(-c2nnn(C)c2COC(=O)N(C)Cc2ccccc2)ccc1O[C@@H]1COC[C@@H](C(=O)O)C1 [Example 22B] |
| 931 | Cc1nc(-c2nnn(C)c2Cn2nncc2CC2CCCC2)ccc1O[C@H]1COC[C@H](C(=O)O)C1 [Example 25] |
| 772 | Cc1nc(-c2nnn(C)c2Cn2cc(CC3CCCC3)nn2)ccc1O[C@H]1COC[C@H](C(=O)O)C1 [Example 26] |

| IC50 [nM] | Structure (SMILES) |
| --- | --- |
| 110 | Cc1nc(-c2nnn(C)c2Cn2ncc(CC3CCCC3)n2)ccc1O[C@H]1COC[C@H](C(=O)O)C1 [Example 27] |
| 594 | Cc1nc(-c2nnn(C)c2COC(=O)N(C)Cc2ccccc2)ccc1O[C@H]1COC[C@@H](C(=O)O)C1 [Example 29] |
| 236 | CCCCN(C)C(=O)OCc1c(-c2ccc(O[C@H]3COC[C@@H](C(=O)O)C3)c(C)n2)nnn1C [Example 30] |
| 2.29 | CCCCCN(C)C(=O)OCc1c(-c2ccc(O[C@H]3COC[C@@H](C(=O)O)C3)c(C)n2)nnn1C [Example 31] |
| 348 | Cc1nc(-c2nnn(C)c2COC(=O)N(C)CC2CCC2)ccc1O[C@H]1COC[C@@H](C(=O)O)C1 [Example 32] |
| 644 | CCCCN(C)C(=O)OCc1c(-c2ccc(O[C@H]3CCO[C@@H](C(=O)O)C3)c(C)n2)nnn1C [Example 35] |
| 713 | Cc1nc(-c2nnn(C)c2COC(=O)N(C)C2CCCC2)ccc1O[C@H]1CCO[C@@H](C(=O)O)C1 [Example 36] |
| 225 | CCCCN(C)C(=O)OCc1c(-c2ccc(O[C@H]3CCO[C@H](C(=O)O)C3)c(C)n2)nnn1C [Example 37] |
| 2010 | CCCN(C)C(=O)OCc1c(-c2ccc(O[C@H]3CCO[C@H](C(=O)O)C3)c(C)n2)nnn1C [Example 38] |
| 313 | Cc1nc(-c2nnn(C)c2COC(=O)N(C)C2CCCC2)ccc1O[C@H]1CCO[C@H](C(=O)O)C1 [Example 39] |
| 158 | Cc1nc(-c2nnn(C)c2COC(=O)N(C)CC2CCC2)ccc1O[C@H]1CCO[C@H](C(=O)O)C1 [Example 40] |
| 16 | Cc1nc(-c2nnn(C)c2CNC(=O)OCc2ccccc2)ccc1O[C@@H]1CCC2C(C(=O)O)C21 (some centres unmarked) [Example 53] |
| 275 | Cc1nc(-c2nnn(C)c2CNC(=O)OCC(C)(C)C)ccc1O[C@@H]1CCC2C(C(=O)O)C21 (some centres unmarked) [Example 54] |
| 83 | Cc1nc(-c2nnn(C)c2CNC(=O)OC2CCCC2)ccc1O[C@@H]1CCC2C(C(=O)O)C21 (some centres unmarked) [Example 55] |
| 155 | CCCCOC(=O)NCc1c(-c2ccc(O[C@@H]3CCC4C(C(=O)O)C43)c(C)n2)nnn1C (some centres unmarked) [Example 56] |
| 35 | CCCOc1ccnc(NCc2c(-c3ccc(O[C@@H]4CC[C@H]5C(C(=O)O)[C@@H]45)c(C)n3)nnn2C)n1 (some centres unmarked) [Example 57] |
| 46 | CCCCN(C)C(=O)OCc1c(-c2ccc(O[C@@H]3CC[C@H]4C(C(=O)O)[C@@H]34)c(C)n2)nnn1C (some centres unmarked) [Example 58] |
| 313 | Cc1nc(-c2nnn(C)c2COC(=O)N(C)CC2CC2)ccc1O[C@@H]1CC[C@H]2C(C(=O)O)[C@@H]12 (some centres unmarked) [Example 59] |
| 313 | Cc1nc(-c2nnn(C)c2COC(=O)N(C)CC(C)C)ccc1O[C@@H]1CC[C@H]2C(C(=O)O)[C@@H]12 (some centres unmarked) [Example 60] |
| 98 | Cc1nc(-c2nnn(C)c2COC(=O)N(C)C2CCC2)ccc1O[C@@H]1CC[C@H]2C(C(=O)O)[C@@H]12 (some centres unmarked) [Example 61] |
| 145 | Cc1nc(-c2nnn(C)c2COC(=O)N(C)C2CCCC2)ccc1O[C@@H]1CC[C@H]2C(C(=O)O)[C@@H]12 (some centres unmarked) [Example 62] |
| 264 | Cc1nc(-c2nnn(C)c2COC(=O)NCc2ccccc2)ccc1O[C@@H]1CC[C@H]2C(C(=O)O)[C@@H]12 (some centres unmarked) [Example 63] |
| 125 | Cc1nc(-c2nnn(C)c2NC(=O)OCc2ccccc2)ccc1O[C@@H]1CC[C@H]2C(C(=O)O)[C@@H]12 (some centres unmarked) [Example 64] |
| 440 | CN(C(=O)OCc1c(-c2ccc(OC3CC4C(C3)C4C(=O)O)cn2)nnn1C)C1CCCC1 (centres unmarked) [Example 65] |
| 322 | CN(CC1CCC1)C(=O)OCc1c(-c2ccc(OC3CC4C(C3)C4C(=O)O)cn2)nnn1C (centres unmarked) [Example 66] |
| 262 | Cc1nc(-c2nnn(C)c2COC(=O)N(C)CC2CCC2)ccc1OC1CC2C(C1)C2C(=O)O (centres unmarked) [Example 67] |
